Assay results taken from patent US9000135B2, “Self-reactive arms and prodrugs comprising same” (Centre Nationale de Recherche Scientifique, priority 2010, dated 2015).

Experiments:
Type in all cases: cell-based
[1] = system: HeLa cells, expressing the folic acid receptor (FR); assay: Internalization monitored by confocal microscopy (doxorubicin fluorescence) in HeLa cells; conditions: 10 μM
Method: (§1) Compound (7) was tested on two cell lines, the HeLa cells, expressing the folic acid receptor (FR), and the A549 cells expressing little or none of these receptors.
(§2) The HeLa and A549 cells were cultured in RPMI 1640 medium supplemented with 10% fetal calf serum (InVitrogen) at 37° C. in an atmosphere containing 5% CO2.
(§3) For confocal microscopy experiments, the cells were cultured in a glass-bottomed bowl.
(§4) The cells were incubated for 1 hour in the presence or absence of 1 μm of folic acid before being treated with either a buffer solution (control), or doxorubicin at 10 μM, or with a doxorubicin-galactose (DOX-GAL) conjugate, compound (5), in a concentration of 10 μM, or compound (7) (DOX-GAL-AF) in a concentration of 10 μM, or compound (7) in the presence of folic acid with respective concentrations of 10 μM.
(§5) After treatment, the cells were rinsed with PBS and fixed with a PBS-3.7% formaldehyde solution for 20 minutes, at room temperature. […]
(§6) The internalization by endocytosis of doxorobucin of the compounds (5) and (7) and of compound (7) in the presence of folic acid (AF) was monitored by confocal microscopy using the fluorescence of doxorubicin in the Hela cells and in the A549 cells.

[2] = system: A549 cells expressing little or none of these receptors; assay: Internalization monitored by confocal microscopy (doxorubicin fluorescence) in A549 cells; conditions: 10 μM
Method: as §1, §2, §3, §4, §5, §6

Hela cells = assay: Proliferation test (XTT) on Hela cells; conditions: 0 to 1000 nM, 4 days
Method: (§7) In order to check that the endocytosis of compound (7) DOX-GAL-AF is followed by release of the drug in the intracellular medium, proliferation tests were performed on Hela and A549 cells incubated in the presence of increasing concentrations (0 to 1000 nM) of doxorubicin (DOX), compound (5) (DOX-GAL) and compound (7) (DOX-GAL-AF) for 4 days.
(§8) The cell proliferation kit II (XTT; Roche) was used to evaluate the cellular proliferation. The kit was used following the manufacturer's recommendations.
(§9) In brief, 3×10^3 cells/well were placed on 96 culture plates and then in 100 μl of medium,
(§10) The cells were cultured as previously indicated.
(§11) The cells were cultured for 24 hours before addition of the compounds tested in the indicated concentration.
(§12) After 4 days of treatment, 50 μl of XTT marking mixture were added to the well. The cells were then incubated for 4 hours at 37° C. before the absorbance was determined at 480 nm.
(§13) In order to check that the enzymatic activation of compound (7) DOX-GAF-AF can effectively take place in the cellular environment, cytotoxicity tests were repeated in a culture medium previously supplemented with β-galactosidase (E. coli) (40 U·mL^−1) (curves in dotted lines).

A549 cells = assay: Proliferation test (XTT) on A549 cells; conditions: 0 to 1000 nM, 4 days
Method: as §7, §8, §9, §10, §11, §12, §13

Row | Compound | internalization by endocytosis (fluorescence of doxorubicin, confocal microscopy) [1] | internalization by endocytosis (fluorescence of doxorubicin, confocal microscopy) [2] | inhibition of proliferation (in words) (Hela cells) | toxicity / inhibition of proliferation (in words) (A549 cells)
1 | C#CCC(OC(=O)NC1CC(O[C@H]2C[C@](O)(C(=O)CO)Cc3c(O)c4c(c(O)c32)C(=O)c2c(OC)cccc2C4=O)OC(C)C1O)c1ccc(O[C@@H]2OC(CO)[C@H](O)C(O)C2O)c([N+](=O)[O-])c1 (some centres unmarked) [Compound 5] | not internalized in any of the cell lines | not internalized in any of the cell lines | ineffective on the two cell lines | ineffective on the two cell lines
2 | COc1cccc2c1C(=O)c1c(O)c3c(c(O)c1C2=O)C[C@@](O)(C(=O)CO)C[C@@H]3O[C@H]1C[C@H](N)[C@H](O)[C@H](C)O1 [doxorubicin] | penetrates non-specifically through the membranes of the two cell lines | penetrates non-specifically through the membranes of the two cell lines | inhibits the proliferation of these two lines | inhibits the proliferation of these two lines
